Data taken from US20170267727A1, “Conjugates of pH Low Insertion Peptide and Monomethyl Auristatins in the Treatment of Solid Tumors” (Lehigh University, priority 2016, published 2017).
Entries after “also recorded” stand apart in the source; their conditions may differ. Positions of bridges follow the written chain, without caps; N, C: chain ends. Non-standard residues stand in square brackets, D forms with d. Residues, ends and D or L forms follow the SMILES beside them. Chains are numbered I, II in the order given. No end group written: not given here. *: point of attachment. Dolaproine = CO[C@@H]([C@@H]1CCCN1)[C@@H](C)C(=O)O; Dil = CC[C@H](C)[C@H](NC)[C@@H](CC(=O)O)OC; X1 = C[C@@H](N*)[C@@H](O)c1ccccc1; NMeV = CN[C@H](C(=O)O)C(C)C; Mpa = O=C(O)CCS

Columns and labels:
[1] = cited from earlier work
[2] = cited from earlier work; remark: listed apart in the source
MDA-MB-231 cells = experiment: Anti-proliferation Assay (2 hours treatment at pH 7.4 or 5.0, 72 hours growth, MTT)
Procedure: (§1) FIG. 3A, FIG. 3C and FIG. 3E show HeLa cells treated with pHLIP(WT)-MMAE, pHLIP(D25E)-MMAE, and MMAE(linker), respectively. FIG. 3B, FIG. 3D and FIG. 3F show MDA-MB-231 cells treated with pHLIP(WT)-MMAE, pHLIP(D25E)-MMAE, and MMAE(linker), respectively. Black columns represent cells treated at pH 7.4 and cells treated at low pH are shown in grey. For each condition, 3,000 cells/well (96-well plate) were seeded, allowed to adhere overnight, treated for 2 hours, washed once with media and grown for 72 hour in complete medium at physiologic pH. Cell viability was assessed with the MTT assay. All measurements were normalized to the media control (0 μM, pH 7.4), as 100% cell viability. Results are shown as mean±SD (n=6-9).
(§2) Anti-proliferation Assay. HeLa and MDA-MB-231 cells were seeded in 96-well plates at a density of 3,000 cells/well and incubated overnight. Before treatment, construct aliquots were solubilized in an appropriate volume of DMEM without FBS (pH 7.4)—so that upon pH adjustment the desired treatment concentration is obtained—and gently sonicated for 30-60 seconds using a bath sonicator (Branson Ultrasonics). After removal of cell media, this treatment solution was added to each well and incubated at 37° C. for 5-10 minutes. The pH was then adjusted to the desired value using a pre-established volume of DMEM, pH 2.0 buffered with citric acid (final volume=50 μL) and the plate was incubated at 37° C. for 2 hours. After treatment, the media was removed, cells were washed once with 100 μL of complete DMEM, and 100 μL of complete medium was added to each well before returning the plate to the incubator. Treatment solutions were collected and their pH values measured using a micro-combination pH probe (Microelectrodes, Inc.). […] Cell viability was determined after 72 hours using the colorimetric MTT assay. Briefly, 10 μL of a 5 mg/mL MTT stock solution was added to the treated cells and incubated for 2 hours at 37° C. The resulting formazan crystals were solubilized in 200 μL DMSO and the absorbance measured at 580 nm using an Infinite 200 PRO microplate reader (Tecan). Cell viability was calculated against control cells treated with media at physiologic pH.
(§3) Inhibition of Cell Proliferation. The ability of pHLIP to move MMAE across the cell membrane and to inhibit cancer cell proliferation in concentration and pH-dependent manners was evaluated. Cell treatments for both pHLIP(WT)-MMAE and pHLIP(D25E)-MMAE constructs were carried out with conjugate concentrations ranging from 1.25 to 10 μM at either pH 7.4 or 5.0. After a 2-hour incubation at 37° C., the treatment media was replaced by fresh media, and cells were grown for an additional 72 hours at normal pH before assessing cell viability using the MTT assay. […] This treatment protocol is quite stringent when compared to the typical multi-days exposure treatments used with free drugs (FIG. 6A and FIG. 6B).

HeLa cells [3] = experiment: as above
Procedure: as §1
HeLa cells treated with pHLIP(WT)-MMAF (FIG. 9A), pHLIP(D25E)-MMAF (FIG. 9B), pHLIP(P20G)-MMAF (FIG. 9C), and pHLIP(R11Q)-MMAF (FIG. 9D). Circles represent cells treated at pH 7.4 and squares represent cells treated at pH 5.0. Results are shown as the mean±SEM (n=6-9).
as §2, §3

HeLa cells [4] = experiment: Cell proliferation with free drug, 72 hours incubation, MTT assay; format: cell-based, Human; conditions: incubated with the cells for 72 hours; read-out: IC50 against HeLa cells
Procedure: FIG. 6A and FIG. 6B show inhibition of HeLa (FIG. 6A) and MDA-MB-231 (FIG. 6B) cell proliferation by free MMAE modified with a succinimide nitrophenyl-based linker (MMAE+linker) and by unmodified MMAE. For each cell assay 3,000 cells/well were seeded, allowed to adhere overnight and incubated with either compound for 72 hours in complete medium at physiologic pH. Cell viability was determined with the MTT assay. All measurements were normalized to the 1% DMSO controls. Results are shown as mean±SD (n=6). Data were fitted with a sigmoidal dose response function in Prism for Mac (GraphPad Software, Inc.).
Cell Culture. Human cervical adenocarcinoma HeLa cells and human breast adenocarcinoma MDA-MB-231 cells were cultured in Dulbecco's modified Eagle's medium (DMEM supplemented with 10% FBS, 100 U/mL penicillin, and 0.1 mg/mL streptomycin in a humidified atmosphere of 5% CO2 at 37° C.

A431 tumors = conditions: i.p., 1 mg/kg
[5] = Toxicity Studies (CBC and comprehensive metabolic panel); format: in vivo; conditions: four 1 mg/kg injections on days 1, 3, 5 and 7; monitored 2 weeks after final injection
Procedure: Four one milligram/kilogram (1 mg/kg) injections of pHLIP(WT)-MMAF are given to subjects on days 1, 3, 5 and 7. Overall health, liver and kidney function, and electrolytes are monitored using a complete blood count (CBC) and comprehensive metabolic panel, for a period of 2 weeks after the final injection.

HeLa tumors = conditions: end of the three week study, n=8
Procedure: HeLa (ATCC#CCL-2) were injected subcutaneously into the inguinal space of female Ncr nu/nu mice. Tumors were allowed to develop until they were approximately 75 mm^3 in size. […] On days 1, 3, 5, and 8, animals were injected intravenously with 200 microliters of either pHLIP-MMAF (20 microM in PBS+1% DMSO) or vehicle control (PBS+1% DMSO). Tumors were measured with calipers on routine basis for approximately 3 weeks and tumor volumes calculated with the formula: length×width×(height×0.5). Animals were euthanized when tumors reached a volume of 500 mm^3. FIG. 10A depicts tumor growth as a function of initial tumor volume. FIG. 10B depicts tumor volume. FIG. 10C depicts overall survival.
HeLa (ATCC#: CCL-2) were injected subcutaneously (s.c.) into the inguinal space of female Ncr nu/nu mice. Tumors were allowed to develop until they were approximately 75 mm^3 in size. […] On days 1, 3, 5, and 8 animals were injected intravenously with 200 microliters of either pHLIP-MMAF (20 microM in PBS+1% DMSO) or vehicle control (PBS+1% DMSO). Tumors were measured with calipers on routine basis for approximately 3 weeks and tumor volumes calculated with the formula Length×Width×(Height×0.5). […] A tumor volume of 500 mm^3 was prospectively set as the stopping point for this study.

[6] = cited from earlier work; remark: listed apart in the source
[7] = 2.5 μL (so in the source), low pH

## CC[C@H](C)[C@@H]([C@@H](CC(=O)N1CCC[C@H]1[C@H](OC)[C@@H](C)C(=O)N[C@@H](Cc1ccccc1)c1nccs1)OC)N(C)C(=O)[C@@H](NC(=O)[C@H](C(C)C)N(C)C)C(C)C [Dolastatin 10]
[1]
  IC50: 0.1 nM
[2]
  Log P o/w: 3.4

## CC[C@H](C)[C@@H]([C@@H](CC(=O)N1CCC[C@H]1[C@H](OC)[C@@H](C)C(=O)N[C@H](C)[C@@H](O)c1ccccc1)OC)N(C)C(=O)[C@@H](NC(=O)[C@@H](NC)C(C)C)C(C)C [MMAE, monomethyl auristatin E, reference compound] (H-[NMeV]V[Dil][Dolaproine]-X1)
MDA-MB-231 cells; [7]
  cytotoxicity: 20-30%
[1]
  IC50: 0.1 to 2 nM
[2]
  Log P o/w: 2.2
HeLa cells [3]; [7]
  cytotoxicity: 20-30%
HeLa cells [3]; physiological pH, 5 μM
  cytotoxicity: about 70%
HeLa cells [4]
  IC50: ~4 nM

## CC[C@H](C)[C@@H]([C@@H](CC(=O)N1CCC[C@H]1[C@H](OC)[C@@H](C)C(=O)N[C@@H](Cc1ccccc1)C(=O)O)OC)N(C)C(=O)[C@@H](NC(=O)[C@@H](NC)C(C)C)C(C)C [MMAF, monomethyl auristatin F] (H-[NMeV]V[Dil][Dolaproine]F-OH)
[1]
  IC50: 105 to 250 nM
[2]
  Log P o/w: 0.7

## CC[C@H](C)[C@@H]([C@@H](CC(=O)N1CCC[C@H]1[C@H](OC)[C@@H](C)C(=O)N[C@@H](Cc1ccccc1)C(=O)OC)OC)N(C)C(=O)[C@@H](NC(=O)[C@@H](NC)C(C)C)C(C)C [MMAF-Ome, monomethyl auristatin F-OMe] (H-[NMeV]V[Dil][Dolaproine]F-OMe)
[1]
  IC50: 0.001 nM
[2]
  Log P o/w: 2.8

## I: AAEQNPIYWARYADWLFTTPLLLLDLALLVDADEGTCG-NH2 / II: [Mpa][NMeV]V[Dil][Dolaproine]F (disulfide I:37-II:1; C-terminus assumed) [pHLIP(WT)-MMAF]
A431 tumors
  effect on A431 tumors: Analogous results were obtained
[5]
  overall health, liver and kidney function, electrolytes: Clinically significant differences in overall health, liver and kidney function, and electrolytes were not observed
HeLa cells [3]
  improvement over treatments with pHLIP(WT)-MMAE: ca. 100 fold
HeLa cells [3]; pH 7.4 versus pH 5.0
  cell killing: clear pH-selective and concentration-dependent killing
HeLa tumors
  animals removed for tumor size exceeding 500 mm^3: only a single animal

## amanitin
[6]
  pKa of insertion: 5.9

## pHLIP(D25E) (AAEQNPIYWARYADWLFTTPLLLLELALLVDADEGTCG-NH2) [reference compound]
MDA-MB-231 cells; 10 μM, pH 7.4 or pH 5.0
  effect of peptide alone on cell viability: not cytotoxic; also recorded: neither pHLIP(WT) or pHLIP(D25E) peptides have any harmful effects
[6]
  pKa of insertion: 6.49
HeLa cells [3]; 10 μM, pH 7.4 or pH 5.0
  effect of peptide alone on cell viability: not cytotoxic; also recorded: neither pHLIP(WT) or pHLIP(D25E) peptides have any harmful effects
